Reference: patent US12194078B2, “Methods and compositions related to combined treatment with anti-inflammatories and synthetic nanocarriers comprising an immunosuppressant” (Cartesian Therapeutics, Inc., priority 2017, dated 2025)
Read-outs that look alike come from different tables or passages of the source.

How the values were obtained:
[1] = tested on: ADAs; conditions: all KRYSTEXXA-treated subjects; cited from earlier work
[2] = tested on: uric acid; conditions: cited from earlier work
[3] = tested on: serum uric acid (sUA); test: Phase 3 pegloticase trials: AUC of mean sUA levels over time; type: in vivo, human; set-up: AUC of mean sUA levels, responders / AUC of mean sUA levels, non-responders: unit not given beside the values; conditions: for Area Under Curve of Mean sUA Levels Over Time Up to 20 Weeks: combined weighted average for responders and non-responders, digitized, extrapolated to 20 weeks
Protocol: For comparison, the Phase 3 pegloticase trials (John S. Sundy, MD, PhD; Herbert S. B. Baraf, MD; Robert A. Yood, MD; et al. Efficacy and Tolerability of Pegloticase for the Treatment of Chronic Gout in Patients Refractory to Conventional Treatment: Two Randomized Controlled Trials. JAMA. 2011; 306(7):711-720) were examined to determine the number of flares per month and the area under the curve (AUC) of mean serum uric acid (sUA) levels over time (up to 20 weeks). Subjects were given 0.6 mg of colchicine once or twice daily (or a nonsteroidal anti-inflammatory drug) one week before first infusion, which continued throughout the study. The study also included prophylaxis against infusion related reactions (IRs) before each infusion. The subjects were administered oral fexofenadine (60 mg) the evening before and again immediately before, the infusion, as well as acetaminophen 1000 mg) and IV hydrocortisone (200 mg) immediately before the infusion. Data points were obtained from Table 2, which presents the biweekly/monthly flare per patient month. Data points were also identified using a graph digitizer for FIG. 2 of the aforementioned reference. The data was extrapolated to 20 weeks. The AUC of mean sUA levels over time (up to 20 weeks) and the flares per patient month were calculated using the combined weighted average for responders and non-responders for sUA AUC. […] Similar calculations were performed to obtain the monthly data.

[4] = Combination assessment of flare frequency and AUC of mean sUA; type: in vivo, human
Protocol: Anti-drug antibodies (ADAs) can be a complication with treatment with soluble therapeutic proteins, such as the possibility of reduced efficacy. In addition, with treatment of subjects with conditions associate with gout, gout flares can increase when efficacy is increased. […] Specifically, a combination assessment of glare frequency as well as the area under the curve of mean sUA (serum uric acid) levels over time was performed. The finding of both improved efficacy and reduced gout flares was surprising with the SEL-212 study drug and anti-inflammatory treatment.
The tabulated data outlining the comparison in flare frequency between the different medications alongside their efficacy in reducing serum uric acid (sUA) is compiled in Table 4.
In addition, a combination assessment of glare frequency as well as the area under the cruve of mean sUA levels over time show both improved efficacy and reduced gout flares. […] Here, with the SEL-212 study drug and anti-inflammatory treatment, both efficacy and gout flare reduction can be achieved.

[5] = tested on: patients with chronic gout refractory to conventional treatment; conditions: cited from earlier work
[6] = tested on: patients with hyperuricemia and gout; conditions: first 8 weeks, cited from earlier work
[7] = tested on: serum uric acid (sUA); test: Phase 3 febuxostat trial: AUC of mean sUA levels over time; type: in vivo, human; conditions: data points from graph digitizer
Source text: Further comparisons can be made with the primary branded oral uric acid lowering medication, febuxostat. In a phase 3, randomized, double-blind, multi-center trial, the safety and efficacy of febuxostat was studied over 52 weeks (Michael A. Becker, M. D., H. Ralph Schumacher, Jr., M. D., Robert L. Wortmann, M. D., Patricia A. MacDonald, B. S. N., N. P., Denise Eustace, B. A., William A. Palo, M. S., Janet Streit, M. S., and Nancy Joseph-Ridge, M. D. Febuxostat Compared with Allopurinol in Patients with Hyperuricemia and Gout. N Engl J Med 2005; 353:2450-2461Dec. 8, 2005). […] Data points were identified using a graph digitizer for FIG. 1 of the above reference. At a dose of 80 mg/day, 55 out of 255 subjects required treatment for at least one gout flare. This would be the equivalent to a flare frequency of at least 0.22 flares per patient month, and possibly more. At a dose of 120 mg/day, 90 out of 250 subjects required treatment for at least one gout flare, equating to at least a flare frequency of 0.36 flares per patient month, and possibly more.

[8] = tested on: patients with hyperuricemia and gout; test: Phase 3 febuxostat trial: gout flares, first 8 weeks; type: in vivo, human; conditions: first 8 weeks with gout flare prophylaxis
Source text: Further comparisons can be made with the primary branded oral uric acid lowering medication, febuxostat. In a phase 3, randomized, double-blind, multi-center trial, the safety and efficacy of febuxostat was studied over 52 weeks (Michael A. Becker, M. D., H. Ralph Schumacher, Jr., M. D., Robert L. Wortmann, M. D., Patricia A. MacDonald, B. S. N., N. P., Denise Eustace, B. A., William A. Palo, M. S., Janet Streit, M. S., and Nancy Joseph-Ridge, M. D. Febuxostat Compared with Allopurinol in Patients with Hyperuricemia and Gout. N Engl J Med 2005; 353:2450-2461Dec. 8, 2005). The comparison period for this analysis included only the first 8 weeks of that study, when gout flare prophylaxis (naproxen or colchicine) was administered. Data points were identified using a graph digitizer for FIG. 1 of the above reference. At a dose of 80 mg/day, 55 out of 255 subjects required treatment for at least one gout flare. This would be the equivalent to a flare frequency of at least 0.22 flares per patient month, and possibly more. At a dose of 120 mg/day, 90 out of 250 subjects required treatment for at least one gout flare, equating to at least a flare frequency of 0.36 flares per patient month, and possibly more.

[9] = monthly dosing, four weeks after first dose

Pegloticase
treated subjects that developed ADAs [1]: 89%
non-responders, share of subjects ([2]; monthly dosing cohorts): 65%
subjects classified as responders (uric acid below 6 mg/dl for 80% of the time at months three and six) ([2]; monthly dosing cohorts): 35%
mean uric acid levels at four weeks, non-responders [2, 9]: above 6 mg/dl
mean uric acid levels at four weeks, responders [2, 9]: above 4 mg/dl
AUC of mean sUA levels, non-responders ([3]; Pegloticase biweekly group, non-responders, cut to 20 weeks): 102.0
AUC of mean sUA levels, responders ([3]; Pegloticase biweekly group, responders): 12.3
Area Under Curve of Mean sUA Levels Over Time Up to 20 Weeks ([3]; Pegloticase biweekly): 64.0
Area Under Curve of Mean sUA Levels Over Time Up to 20 Weeks ([3]; Pegloticase monthly): 94.4
Flares per patient month * AUC ([4]; Pegloticase biweekly): 33.28
Flares per patient month * AUC ([4]; Pegloticase monthly): 66.05
Flares per patient month ([5]; Pegloticase biweekly): 0.52 flares per patient month
Flares per patient month ([5]; Pegloticase monthly): 0.70 flares per patient month

Cc1nc(-c2ccc(OCC(C)C)c(C#N)c2)sc1C(=O)O [Febuxostat, febuxostat]
Flares per patient month * AUC ([4]; Febuxostat 80 mg/day): 23.83
Flares per patient month * AUC ([4]; Febuxostat 120 mg/day): 33.62
subjects that required treatment for at least one gout flare ([6]; Febuxostat 80 mg/day): 55 out of 255
subjects that required treatment for at least one gout flare ([6]; Febuxostat 120 mg/day): 90 out of 250
Area Under Curve of Mean sUA Levels Over Time Up to 20 Weeks ([7]; Febuxostat 80 mg/day): 108.3
Area Under Curve of Mean sUA Levels Over Time Up to 20 Weeks ([7]; Febuxostat 120 mg/day): 93.4
Flares per patient month ([8]; Febuxostat 80 mg/day): 0.22 flares per patient month
Flares per patient month ([8]; Febuxostat 80 mg/day, listed as febuxostat): at least 0.22 flares per patient month
Flares per patient month ([8]; Febuxostat 120 mg/day): 0.36 flares per patient month
Flares per patient month ([8]; Febuxostat 120 mg/day, listed as febuxostat): ≥ 0.36 flares per patient month
